Assay [1] deals with Boll Weevil (Anthonomus grandis). Description: whole plant or invertebrate. Format: in vivo. The conditions noted are these: eggs sprayed with 20 μl, 3 to 5 days.
In assay [2] the test system is Tobacco Budworm (Heliothis virescens). Description: whole plant or invertebrate. In kind it is in vivo. The conditions noted are these: 144 h, eggs sprayed with 10 μl, 6 days.

As a reminder, the mortality is the percentage killed. Low readings indicate more survivors, high ones fewer survivors.

Consider `O=S(=O)(NCc1ccnc2ccccc12)c1ccc(Br)s1` [Compound I-70, 5-bromo-thiophene-2-sulfonic acid (quinoline-4-ylmethyl)-amide], for which the figures for the mortality at 2500 ppm in assay [1] and in assay [2] were more than 50% and more than 75%, respectively.

The record behind these values is US20080214394A1, “N-(4-Pyridyl)Methylsulfonamides For Combating Arthropodal Pests” (BASF Aktiengesellschaft, priority 2005, published 2008).
